Results from ChEMBL document CHEMBL2016544, “Low brain penetrant CB1 receptor agonists for the treatment of neuropathic pain” (Bioorg Med Chem Lett, 2012).
Converted amounts (≈) assume the structure as drawn. The source made the active and inactive calls. No cut-off for these calls is given here.

Key:
[1] = Intrinsic clearance in human liver microsomes; type: ADME, Microsome; conditions: read-out: CLH
[2] = molecular target: T1, Cannabinoid receptor 1 (Homo sapiens, UniProt P21554); assay: Agonist activity at CB1 receptor; type: functional
T1 sequence (P21554 whole entry): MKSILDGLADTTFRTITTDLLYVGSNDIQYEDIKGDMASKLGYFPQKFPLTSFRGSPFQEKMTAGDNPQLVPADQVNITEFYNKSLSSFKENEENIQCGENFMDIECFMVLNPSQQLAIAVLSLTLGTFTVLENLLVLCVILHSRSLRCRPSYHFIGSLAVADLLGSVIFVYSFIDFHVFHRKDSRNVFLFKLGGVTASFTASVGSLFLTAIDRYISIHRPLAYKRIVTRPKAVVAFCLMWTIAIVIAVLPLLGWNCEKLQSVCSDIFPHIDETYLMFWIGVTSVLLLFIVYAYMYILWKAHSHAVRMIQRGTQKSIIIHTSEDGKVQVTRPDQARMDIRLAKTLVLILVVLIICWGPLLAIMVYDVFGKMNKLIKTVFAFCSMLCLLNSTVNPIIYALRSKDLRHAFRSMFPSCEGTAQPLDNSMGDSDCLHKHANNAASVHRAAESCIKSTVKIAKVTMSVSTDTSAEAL

[3] = Intrinsic clearance in rat liver microsomes; type: ADME, Microsome; conditions: read-out: CLH
[4] = Ratio of drug level in brain to plasma in mouse; type: ADME, organism-based; conditions: read-out: BPR
[5] = Oral bioavailability in rat at 10 mg/kg; type: ADME, organism-based; conditions: in vivo
[6] = Plasma protein binding in dog; type: ADME, cell-free, Canis lupus familiaris; conditions: read-out: PPB (converted)
[7] = Clearance in rat at 2 mg/kg, iv; type: ADME, organism-based; design: dose 2 mg/kg, route intravenous; conditions: in vivo
[8] = Ratio of AUC in CSF to free plasma of Wistar BRL rat at 24 mg/kg, po by LC-MS/MS analysis; type: ADME, organism-based; design: dose 24 mg/kg, route oral; conditions: in vivo
[9] = Oral bioavailability in rat; type: ADME, organism-based; conditions: in vivo
[10] = Plasma protein binding in rat; type: ADME, cell-free; conditions: read-out: PPB (converted)
[11] = molecular target: Cannabinoid receptor 2 (Homo sapiens, UniProt P34972); assay: Displacement of [3H]CP 55,940 from human CB2 receptor expressed in insect sf9 membranes; type: cell membranes
Cannabinoid receptor 2, sequence (P34972 whole entry): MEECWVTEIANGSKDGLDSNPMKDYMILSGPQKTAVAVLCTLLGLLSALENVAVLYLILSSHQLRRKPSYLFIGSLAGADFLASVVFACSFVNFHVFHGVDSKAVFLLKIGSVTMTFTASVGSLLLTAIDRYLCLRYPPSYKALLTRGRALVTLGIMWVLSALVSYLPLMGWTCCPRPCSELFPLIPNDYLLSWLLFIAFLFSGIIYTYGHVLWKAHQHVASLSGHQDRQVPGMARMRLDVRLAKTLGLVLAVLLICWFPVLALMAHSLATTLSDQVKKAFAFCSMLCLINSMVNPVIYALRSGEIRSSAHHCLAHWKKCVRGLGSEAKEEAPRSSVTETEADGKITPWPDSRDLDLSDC

[12] = Cmax in Wistar BRL rat plasma at 24 mg/kg, po by LC-MS/MS analysis; type: ADME, organism-based; design: dose 24 mg/kg, route oral
[13] = Intrinsic clearance in rat hepatocytes assessed per million cells; type: ADME, cell-based, Hepatocyte; conditions: read-out: CLH
[14] = molecular target: Voltage-gated inwardly rectifying potassium channel KCNH2 (Homo sapiens, UniProt Q12809); assay: Displacement of [3H]dofetilide from human ERG
Voltage-gated inwardly rectifying potassium channel KCNH2, sequence (Q12809 whole entry): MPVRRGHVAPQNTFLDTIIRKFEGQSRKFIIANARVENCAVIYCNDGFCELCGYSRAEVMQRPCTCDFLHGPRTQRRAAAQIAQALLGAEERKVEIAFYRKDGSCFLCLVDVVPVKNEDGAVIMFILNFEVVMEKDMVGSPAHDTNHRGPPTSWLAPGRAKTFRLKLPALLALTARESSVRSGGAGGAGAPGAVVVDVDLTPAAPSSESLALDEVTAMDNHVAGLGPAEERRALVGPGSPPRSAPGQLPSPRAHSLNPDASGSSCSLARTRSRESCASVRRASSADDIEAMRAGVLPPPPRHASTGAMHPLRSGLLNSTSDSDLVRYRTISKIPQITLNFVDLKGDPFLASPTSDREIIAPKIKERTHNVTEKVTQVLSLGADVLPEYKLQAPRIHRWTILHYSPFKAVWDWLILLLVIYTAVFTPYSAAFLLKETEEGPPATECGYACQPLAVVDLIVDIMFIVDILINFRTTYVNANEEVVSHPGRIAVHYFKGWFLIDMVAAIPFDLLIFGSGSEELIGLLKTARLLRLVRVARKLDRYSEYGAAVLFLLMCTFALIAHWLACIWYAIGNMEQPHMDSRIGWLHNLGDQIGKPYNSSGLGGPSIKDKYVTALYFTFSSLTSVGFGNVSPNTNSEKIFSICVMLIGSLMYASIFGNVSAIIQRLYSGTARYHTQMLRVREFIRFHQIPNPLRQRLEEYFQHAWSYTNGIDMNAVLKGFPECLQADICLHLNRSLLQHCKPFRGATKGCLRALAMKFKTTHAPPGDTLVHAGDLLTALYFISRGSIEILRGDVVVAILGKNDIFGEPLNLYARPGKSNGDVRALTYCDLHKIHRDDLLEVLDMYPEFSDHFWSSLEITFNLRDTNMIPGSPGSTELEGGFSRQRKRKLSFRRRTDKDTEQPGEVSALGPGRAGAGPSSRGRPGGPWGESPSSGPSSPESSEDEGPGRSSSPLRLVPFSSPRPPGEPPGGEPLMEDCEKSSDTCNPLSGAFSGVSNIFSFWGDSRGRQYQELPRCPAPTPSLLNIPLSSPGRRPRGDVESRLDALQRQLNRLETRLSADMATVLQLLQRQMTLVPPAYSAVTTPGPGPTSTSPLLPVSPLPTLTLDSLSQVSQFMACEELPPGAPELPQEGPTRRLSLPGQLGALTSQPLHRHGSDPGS

[15] = system: Rattus norvegicus; assay: Analgesic activity in po dosed rat Chung Hargreaves model of neuropathic pain assessed as inhibition of thermal hyperalgesia; type: functional
[16] = Ratio of AUC in mouse brain to AUC in mouse plasma at 3 umol/kg, iv; type: ADME; conditions: read-out: Ratio AUC
[17] = system: Rattus norvegicus; assay: Analgesic activity in po dosed rat Chung von Frey model of neuropathic pain assessed as anti-allodynic effect against mechanical stimulus in presence of CB1 receptor antagonist rimonabant; type: functional, organism-based
[18] = system: Rattus norvegicus; assay: Toxicity in po dosed rat assessed as catalepsy by ring immobility test; type: organism-based; conditions: in vivo
[19] = Ratio of Cmax in brain to plasma of Wistar BRL rat at 24 mg/kg, po by LC-MS/MS analysis; type: ADME, organism-based; design: dose 24 mg/kg, route oral
[20] = Intrinsic clearance in dog liver microsomes; type: ADME, Canis lupus familiaris, Microsome; conditions: read-out: CLH
[21] = molecular target: T1, Cannabinoid receptor 1; assay: Displacement of [3H]CP 55,940 from human CB1 receptor expressed in insect sf9 membranes; type: cell membranes
[22] = Ratio of Cmax in mouse brain to Cmax in mouse plasma at 3 umol/kg, iv; type: ADME
[23] = Cmax in mouse plasma at 3 umol/kg, iv; type: ADME, organism-based; design: dose 3 umol/kg, route intravenous
[24] = Apparent permeability across human Caco2 cells; type: ADME, cell-based; conditions: Caco-2
[25] = Solubility of the compound at pH 7.4; type: physicochemical; conditions: buffer
[26] = Intrinsic clearance in rabbit liver microsomes; type: ADME, Oryctolagus cuniculus, Microsome; conditions: read-out: CLH
[27] = Plasma protein binding in human; type: ADME, cell-free; conditions: read-out: PPB (converted)
[28] = Intrinsic clearance in mouse liver microsomes; type: ADME, Microsome; conditions: read-out: CLH
[29] = Cmax in mouse brain at 3 umol/kg, iv; type: ADME, organism-based; design: dose 3 umol/kg, route intravenous
[30] = Ratio of Cmax in CSF to free plasma of Wistar BRL rat at 24 mg/kg, po by LC-MS/MS analysis; type: ADME, organism-based; design: dose 24 mg/kg, route oral; conditions: in vivo
[31] = Intrinsic clearance in human hepatocytes assessed per million cells; type: ADME, cell-based, Hepatocyte; conditions: read-out: CLH
[32] = Plasma protein binding in rabbit; type: ADME, cell-free, Oryctolagus cuniculus; conditions: read-out: PPB (converted)
[33] = Plasma protein binding in mouse; type: ADME, cell-free; conditions: read-out: PPB (converted)
[34] = Cmax in Wistar BRL rat CSF at 24 mg/kg, po by LC-MS/MS analysis; type: ADME, organism-based, Cerebrospinal fluid; design: dose 24 mg/kg, route oral
[35] = Volume of distribution at steady state in rat at 2 mg/kg, iv; type: ADME, organism-based; design: dose 2 mg/kg, route intravenous; conditions: in vivo, read-out: Vdss
[36] = system: Rattus norvegicus; assay: Analgesic activity in po dosed rat Chung von Frey model of neuropathic pain assessed as anti-allodynic effect against mechanical stimulus; type: functional
[37] = system: Rattus norvegicus; assay: Ratio of MED for toxicity in […] to ED50 for anti-allodynic activity in po dosed rat Chung von Frey model of neuropathic pain; type: functional
[38] = Cmax in Wistar BRL rat brain at 24 mg/kg, po by LC-MS/MS analysis; type: ADME, organism-based; design: dose 24 mg/kg, route oral
[39] = Half life in rat at 2 mg/kg, iv; type: ADME, organism-based; design: dose 2 mg/kg, route intravenous; conditions: in vivo
[40] = Ratio of AUC in brain to plasma of Wistar BRL rat at 24 mg/kg, po by LC-MS/MS analysis; type: ADME, organism-based; design: dose 24 mg/kg, route oral; conditions: read-out: Ratio AUC
[41] = Efflux ratio of apparent permeability from basolateral to apical side over apical to basolateral side in human Caco2 cells; type: ADME, cell-based; conditions: Caco-2

SMILES: COc1cccc2c(-c3nsc(CN4CCC(C(=O)NCCO)CC4)n3)cn(CC3CCOCC3)c12
- microsomal CLint [1]: 19 µL/min/mg
- EC50 [2]: 31.6 nM
- microsomal CLint [3]: 33 µL/min/mg

SMILES: CN(CC(N)=O)Cc1nc(-c2cn(CC3CCOCC3)c3c(Cl)cccc23)ns1
- EC50 [2]: 631 nM

SMILES: CN(CC(N)=O)Cc1nc(-c2cn(CC3CCOCC3)c3c(Cl)cccc23)no1.Cl
- microsomal CLint [1]: 36 µL/min/mg
- Kp [4]: 0.9
- microsomal CLint [3]: 43 µL/min/mg

SMILES: NC(=O)CN1CCN(Cc2nc(-c3cn(CC4CCOCC4)c4c(Cl)cccc34)no2)CC1
- bioavailability [5]: 45%
- fraction unbound [6]: 0.063
- microsomal CLint [1]: 12 µL/min/mg
- clearance [7]: 9.5 mL/min/kg
- Ratio AUC [8]: 0.21
- bioavailability [9]: 45%
- fraction unbound [10]: 0.039
- Ki [11]: 50.1 nM
- Cmax [12]: 722 ng/mL
- hepatocyte CLint [13]: 7 µL/min/1e6 cells
- Ki [14]: 20000 nM
- ED50 [15]: 2.5 µmol/kg
- Kp [16]: 0.16
- Activity [17]: inactive
- MED [18]: > 160 µmol/kg
- Kp [19]: 0.2
- microsomal CLint [20]: 13 µL/min/mg
- Ki [21]: 20 nM
- Kp [22]: 0.16
- Cmax [23]: 814 ng/mL
- Papp [24]: 6.2 ×10⁻⁶ cm/s
- solubility [25]: 89 µg/mL (≈ 188 µM)
- Kp [4]: 0.16
- microsomal CLint [26]: < 12 µL/min/mg
- fraction unbound [27]: 0.04
- microsomal CLint [28]: < 12 µL/min/mg
- Cmax [29]: 134 ng/g
- Ratio [30]: 0.23
- hepatocyte CLint [31]: 3 µL/min/1e6 cells
- fraction unbound [32]: 0.037
- fraction unbound [33]: 0.034
- Cmax [34]: 6.4 ng/mL
- Vd [35]: 2.6 L/kg
- ED50 [36]: 17 µmol/kg
- Ratio [37]: >9.3
- microsomal CLint [3]: < 12 µL/min/mg
- Cmax [38]: 148 ng/g
- half-life [39]: 3.8 h
- Kp [40]: 0.22
- efflux ratio [41]: 1.5

SMILES: COc1cccc2c(-c3noc(CN(C)CC(N)=O)n3)cn(CC3CCOCC3)c12
- EC50 [2]: 2510 nM

SMILES: COc1cccc2c(-c3nsc(CN(C)CC(N)=O)n3)cn(CC3CCOCC3)c12
- EC50 [2]: 1260 nM

SMILES: CN(CC(=O)NCCO)Cc1nc(-c2cn(CC3CCOCC3)c3c(Cl)cccc23)no1
- microsomal CLint [1]: 66 µL/min/mg
- microsomal CLint [3]: 49 µL/min/mg

SMILES: NC(=O)CN1CCN(Cc2nc(-c3cn(CC4CCS(=O)(=O)CC4)c4c(Cl)cccc34)no2)CC1
- microsomal CLint [1]: < 12 µL/min/mg
- EC50 [2]: 501 nM
- microsomal CLint [3]: 48 µL/min/mg

SMILES: COc1cccc2c(-c3noc(CN4CCC(C(=O)NCCO)CC4)n3)cn(CC3CCOCC3)c12
- EC50 [2]: 631 nM
